Laboratory results: patent US20240059693A1, “FUSED BICYCLIC PYRAZOLE DERIVATIVES AND METHODS OF USE THEREOF FOR THE TREATMENT OF HERPESVIRUSES” (Merck Sharp & Dohme LLC, priority 2020, published 2024)
Where two headings read alike, the source gives them in different places.

Columns and labels:
HSV2 = assay: Viral qPCR assay, HSV2 in Vero cells; type: cell-based, Herpes Simplex Virus type 2; settings: read-out: HSV2 VERO Cell (EC50)
Experimental: (§1) MRCS cells, Vero cells, and MeWo cells were obtained from ATCC and were maintained at 37° C./5% CO2/90% relative humidity in Minimal Essential Medium with 10% fetal bovine serum, […] L-glutamine, 100 units/ml penicillin and 100 ug/ml streptomycin. Assay plates were prepared by dispensing compounds dissolved in DMSO into wells of 384 well collagen-coated plates using an ECHO acoustic dispenser. Each compound was tested in a 10-point, serial 3-fold dilution. Controls included uninfected cells and infected cells treated only with DMSO. Assays were initiated by mixing selected cells, in suspension, with virus, and dispensing 50 μl/well infected cells to pre-plated compounds. Plates were incubated at 37° C./5% CO2/90% relative humidity for ˜72 hrs to permit genomic replication, and infected cells were lysed by the addition of an equal volume of lysis buffer (10 mM Tris-HCl, pH8, 50 mM KCl, 2 mM MgCl2, 0.45% NP-40, 0.45% Tween-20, and 100 μg/ml proteinase K). An aliquot of the lysate was transferred to a 384-well PCR plate and incubated at 56° C. for 1 hour and then at 95° C. for 10 min. Levels of a viral gene and of the cellular control, PPIA (Thermo Fisher Assay ID=Hs04194521_s1), were measured in separate 10 μL qPCR assays using TaqMan® Gene Expression Master Mix (Applied Biosystems), and an 7900HT Fast Real-Time PCR System with 384-Well Block Module. 7-point, serial 10-fold dilutions of a plasmid standard were run on each plate to generate a standard curve, and genome copies numbers were calculated by plotting experimental Ct onto linear regression of the standard curve. Viral genome copy numbers were normalized by cellular control copy number, and compound effects were normalized to the window defined by the controls. Calculated % effects were fit using a 4-parameter algorithm, and EC50 was reported.
as §1, with “gene” for “gene and of the cellular control, PPIA (Thermo Fisher Assay ID=Hs04194521_s1),”, “in” for “in separate”, “Compound effects on viral” for “Viral”, “number” for “numbers were normalized by cellular control copy number, and compound effects”

HCMV Strain AD169 = assay: Viral qPCR assay, HCMV in MRC-5 cells; type: cell-based, Human cytomegalovirus; settings: read-out: CMV MRC5 Cell (EC50)
Method in brief: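 Viral genome copies, quantified by TaqMan qPCR with a plasmid standard curve after ~72 h infection of MRC-5 cells with AD169 at 0.05-0.1 pfu/cell, served as readout; PPIA normalisation used in one format. Compounds run as 10-point 3-fold series, in standard or 50% FBS media; EC50 by 4-parameter fit.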

[1] = molecular target: T1, varicella zoster virus DNA polymerase (Varicella-zoster virus, UniProt P09252); assay: VZV polymerase assay (AlphaLISA); type: biochemical; settings: VZV DNA polymerase 0.4 nM, 60 minutes at 37° C.
T1 construct: made in house; host or cells: SF21 insect cells (baculovirus vector)
Experimental: Human cytomegalovirus and varicella zoster virus DNA polymerases were expressed via baculovirus vector in SF21 cells and purified. Heterodimeric nucleic acid substrate used in the herpesvirus polymerase reactions was generated by annealing a 59-mer template to a 17-mer digoxigenin-labeled primer. Polymerase (HCMV final concentration of 0.2 nM; VZV final concentration of 0.4 nM) was combined with an inhibitor compound or DMSO in assay buffer (10 mM HEPES, pH 7.5, 25 mM KCl, 25 mM NaCl, 5 mM MgCl2, 5% glycerol, 0.67 mg/ml bovine serum albuminutes, and 1 mM tris(2-carboxyethyl)phosphine), and this mixture was pre-incubated for 30 minutes at room temperature in 384-well microtiter plates. The polymerization reaction was initiated by the addition of template/primer substrate (final concentration: 1.6 nM), and dNTPs (final concentration: 24 nM dCTP, 24 nMdGTP, 16 nM dATP, 16 nM dTTP, and 0.8 nM biotin-dUTP). After 60 minutes incubation at 37° C., reactions were terminated with quench buffer (25 mM HEPES pH 7.5, 100 mM NaCl, 0.25% Tween-20, 12 mM EDTA, and 1 mg/ml bovine serum albumin). Incorporation of biotinylated UTP was detected with 2.5-ug/ml anti-DIG AlphaLISA acceptor beads and 5-10 ug/ml streptavidin AlphaLISA donor beads (Perkin Elmer). Compound effects were normalized to the window defined by the controls (DMSO only and pre-quenched wells) and were fit using a 4-parameter algorithm to report an IC50.

[2] = molecular target: T2, Human cytomegalovirus DNA polymerase (Human cytomegalovirus, UniProt P08546); assay: HCMV polymerase assay (AlphaLISA); type: biochemical; settings: HCMV DNA polymerase 0.2 nM, 60 minutes at 37° C.; read-out: CMV (IC50)
T2 construct: made in house; host or cells: SF21 insect cells (baculovirus vector)
Method in brief: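 Baculovirus/SF21-expressed polymerase (HCMV 0.2 nM; VZV 0.4 nM) pre-incubated 30 min at room temperature with compound in HEPES pH 7.5 buffer, then 60 min at 37 °C with 1.6 nM DIG-primer/template, sub-nM to 24 nM dNTPs and 0.8 nM biotin-dUTP. AlphaLISA detection; IC50 from 4-parameter fit.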

HSV-1 Strain F = assay: Viral qPCR assay, HSV-1 in Vero cells; type: cell-based, Herpes Simplex Virus type 1; settings: read-out: HSV1 VERO Cell (EC50)
Experimental: as §1
as §1, with “gene” for “gene and of the cellular control, PPIA (Thermo Fisher Assay ID=Hs04194521_s1),”, “in” for “in separate”, “Compound effects on viral” for “Viral”, “number” for “numbers were normalized by cellular control copy number, and compound effects”
VZV: Strain Street was maintained as an infected cell stock in MRC-5 cells. It was assayed in MeWo or MRCS cells and was used at 0.04-0.1 pfu/cell. The assays were performed in growth medium. Primer-probe set was Thermo Fisher Assay ID=AIPAEXQ. HSV-1: Strain F Street was assayed in Vero or MRCS cells and was used at 0.0005-0.004 pfu/cell in growth medium. Primer-probe set was Thermo Fisher Assay ID=AIBJZIB

[3] = Human alphaherpesvirus 2, Vero, 72 h
[4] = Human betaherpesvirus 5, AD169, MRC5, 72 h
[5] = Human alphaherpesvirus 1, Vero, 72 h

T2 sequence (P08546 whole entry): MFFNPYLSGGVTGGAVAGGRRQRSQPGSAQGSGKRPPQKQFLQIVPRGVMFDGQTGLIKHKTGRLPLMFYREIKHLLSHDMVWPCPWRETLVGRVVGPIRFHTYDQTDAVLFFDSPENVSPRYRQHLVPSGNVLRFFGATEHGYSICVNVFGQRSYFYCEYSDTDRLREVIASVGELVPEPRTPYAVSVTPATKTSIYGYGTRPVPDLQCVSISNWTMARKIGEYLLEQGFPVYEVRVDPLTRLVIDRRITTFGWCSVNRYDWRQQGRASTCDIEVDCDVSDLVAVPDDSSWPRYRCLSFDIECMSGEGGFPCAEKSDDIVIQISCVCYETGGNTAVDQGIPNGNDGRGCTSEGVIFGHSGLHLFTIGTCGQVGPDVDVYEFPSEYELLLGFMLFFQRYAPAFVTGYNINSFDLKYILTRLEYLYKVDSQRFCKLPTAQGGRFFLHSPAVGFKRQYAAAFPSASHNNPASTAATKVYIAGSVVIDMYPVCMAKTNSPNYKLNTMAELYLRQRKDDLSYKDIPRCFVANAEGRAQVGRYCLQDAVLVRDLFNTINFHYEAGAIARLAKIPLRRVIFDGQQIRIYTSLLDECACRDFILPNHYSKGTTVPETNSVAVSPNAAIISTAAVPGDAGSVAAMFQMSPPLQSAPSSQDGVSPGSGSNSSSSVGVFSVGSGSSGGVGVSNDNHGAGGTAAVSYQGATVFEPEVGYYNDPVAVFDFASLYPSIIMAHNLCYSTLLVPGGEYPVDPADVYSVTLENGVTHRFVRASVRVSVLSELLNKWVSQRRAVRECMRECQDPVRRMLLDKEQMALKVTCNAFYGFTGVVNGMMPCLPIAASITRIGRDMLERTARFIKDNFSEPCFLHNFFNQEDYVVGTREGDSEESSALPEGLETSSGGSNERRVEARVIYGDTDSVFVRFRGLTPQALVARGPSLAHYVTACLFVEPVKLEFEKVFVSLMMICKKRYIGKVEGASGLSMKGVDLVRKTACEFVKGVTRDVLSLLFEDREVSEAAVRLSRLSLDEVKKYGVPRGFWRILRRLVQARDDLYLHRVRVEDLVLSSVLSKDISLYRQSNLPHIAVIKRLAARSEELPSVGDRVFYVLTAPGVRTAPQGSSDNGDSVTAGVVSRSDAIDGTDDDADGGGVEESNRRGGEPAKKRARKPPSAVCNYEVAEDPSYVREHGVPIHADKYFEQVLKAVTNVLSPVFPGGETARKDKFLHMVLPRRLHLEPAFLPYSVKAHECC
T1 sequence (P09252 whole entry): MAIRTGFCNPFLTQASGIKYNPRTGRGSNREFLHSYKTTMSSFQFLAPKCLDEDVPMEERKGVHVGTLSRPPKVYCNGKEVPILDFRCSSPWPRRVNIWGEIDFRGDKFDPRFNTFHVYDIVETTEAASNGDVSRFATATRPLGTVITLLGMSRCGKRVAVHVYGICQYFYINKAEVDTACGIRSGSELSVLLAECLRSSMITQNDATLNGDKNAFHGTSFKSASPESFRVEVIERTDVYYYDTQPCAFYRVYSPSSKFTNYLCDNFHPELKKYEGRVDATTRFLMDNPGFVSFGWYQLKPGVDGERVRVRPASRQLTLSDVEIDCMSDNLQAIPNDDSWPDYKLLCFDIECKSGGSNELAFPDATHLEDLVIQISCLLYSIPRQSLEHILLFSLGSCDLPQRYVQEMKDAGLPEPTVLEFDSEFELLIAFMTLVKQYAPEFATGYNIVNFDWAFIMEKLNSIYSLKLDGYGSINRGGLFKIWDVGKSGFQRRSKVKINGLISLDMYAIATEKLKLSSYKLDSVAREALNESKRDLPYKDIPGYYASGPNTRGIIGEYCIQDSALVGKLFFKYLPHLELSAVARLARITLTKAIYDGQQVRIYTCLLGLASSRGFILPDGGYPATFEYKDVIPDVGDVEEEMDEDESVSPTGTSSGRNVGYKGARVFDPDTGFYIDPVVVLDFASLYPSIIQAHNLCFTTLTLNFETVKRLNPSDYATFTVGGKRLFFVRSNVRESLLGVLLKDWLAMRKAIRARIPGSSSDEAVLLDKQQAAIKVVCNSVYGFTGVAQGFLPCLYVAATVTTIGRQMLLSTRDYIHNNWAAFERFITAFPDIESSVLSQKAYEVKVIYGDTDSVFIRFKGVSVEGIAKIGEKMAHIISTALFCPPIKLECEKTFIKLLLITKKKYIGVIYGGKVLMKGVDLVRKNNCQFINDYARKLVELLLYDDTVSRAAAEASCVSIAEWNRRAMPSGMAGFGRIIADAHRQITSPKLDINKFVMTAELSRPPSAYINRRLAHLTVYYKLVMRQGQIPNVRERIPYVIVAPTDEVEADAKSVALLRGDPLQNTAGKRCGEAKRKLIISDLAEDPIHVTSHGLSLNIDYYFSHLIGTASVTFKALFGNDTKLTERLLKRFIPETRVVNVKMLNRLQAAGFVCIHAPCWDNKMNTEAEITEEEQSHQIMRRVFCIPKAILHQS

Compound	EC50 (HSV2; ~72 hrs)	EC50 (HCMV Strain AD169; MRC5 cells, ~72 hrs)	IC50 [1]	IC50 [2]	EC50 (HSV-1 Strain F; ~72 hrs)	EC50 (HSV2; [3])	EC50 (HCMV Strain AD169; [4])	EC50 (HSV-1 Strain F; [5])
CCC1c2c(c(C(=O)NCc3ccc(Cl)cc3)nn2C)CN1CC1CCC(=O)N1 (single isomer, unassigned) [Compound 106]	1.55 µM	1170 nM	30.5 nM	108 nM	1.06 µM	–	–	–
CC1c2c(c(C(=O)NCc3ccc(Cl)cc3)nn2C)CN1C[C@H]1CCC(=O)N1 (single isomer, unassigned) [Compound 107]	90.3 µM	99000 nM	1500 nM	4540 nM	73.8 µM	–	–	–
Cn1nc(C(=O)NCc2ccc(Cl)cc2)c2c1CC(CC1CCC(=O)N1)C2 (single isomer, unassigned) [Compound 130]	4.12 µM	1200 nM	4.44 nM	4.44 nM	3.84 µM	–	–	–
O=C1CC[C@H](CC2Cc3c(C(=O)NCc4ccc(Cl)cc4)nn(C4CN(CC5CC5)C4)c3C2)N1 (single isomer, unassigned) [Compound 136]	–	–	16.5 nM	119 nM	–	2.52 µM	980 nM	3.52 µM
Cn1nc(C(=O)NCc2ccc(Cl)cc2)c2c1CC(O)(CC1CCC(=O)N1)C2 (single isomer, unassigned) [Compound 140]	0.705 µM	2660 nM	26.5 nM	63.2 nM	0.439 µM	–	–	–
O=C1CC[C@H](CN2Cc3c(C(=O)NCc4ccc(Cl)cc4)nn(CCN4CC(F)C4)c3C2)N1 [Compound 4]	–	–	32.6 nM	52.6 nM	–	–	2980 nM	26.1 µM
CC1(C(=O)NCCn2nc(C(=O)NCc3ccc(Cl)cc3)c3c2CN(C[C@H]2CCC(=O)N2)C3)CC1 [Compound 26]	–	–	10.2 nM	16.2 nM	–	–	2630 nM	66.1 µM
CC(C)n1nc(C(=O)NCc2ccc(Cl)cc2)c2c1CN(C[C@H]1CCC(=O)N1)C2 [Compound 35]	–	–	31 nM	54.8 nM	–	0.581 µM	2670 nM	1.85 µM
O=C1CC[C@H](CN2Cc3c(C(=O)NCc4ccc(Cl)cc4)nn(Cc4nccs4)c3C2)N1 [Compound 48]	–	–	118 nM	69.7 nM	–	–	4020 nM	–
CN(CCn1nc(C(=O)NCc2ccc(Cl)cc2)c2c1CN(Cc1c(F)cncc1F)C2)C(=O)C1CCC1 [Compound 63]	–	–	76 nM	99.3 nM	–	–	–	–
CN(CCn1nc(C(=O)NCc2ccc(Cl)cc2)c2c1CN(Cc1ccnc(F)c1)C2)C(=O)C1CCC1 [Compound 66]	–	–	48.6 nM	112 nM	–	–	–	–
CN(CCn1nc(C(=O)NCc2ccc(Cl)cc2)c2c1CN(Cc1ccncc1F)C2)C(=O)C1CCC1 [Compound 68]	–	–	59.1 nM	123 nM	–	–	–	–
O=C(NCc1ccc(Cl)cc1)c1nn(CCNC(=O)C2CCC2)c2c1CN(Cc1ccncc1F)C2 [Compound 69]	–	–	84.9 nM	173 nM	–	–	–	–
CC1c2c(c(C(=O)NCc3ccc(Cl)cc3)nn2C)CN1C[C@@H]1CCC(=O)N1 (stereo partly shown) [Compound 101]	–	32700 nM	391 nM	531 nM	29.1 µM	–	–	–
Cn1nc(C(=O)NCc2ccc(Cl)cc2)c2c1C(CO)N(C[C@H]1CCC(=O)N1)C2 (stereo partly shown) [Compound 122]	–	1310 nM	24.1 nM	195 nM	0.86 µM	–	–	–
Cn1nc(C(=O)NCc2ccc(Cl)cc2)c2c1C1(CCC1)N(C[C@@H]1CCC(=O)N1)C2 [Compound 123]	–	–	898 nM	1210 nM	–	–	14600 nM	13.3 µM
C[C@@H]1c2c(C(=O)NCc3ccc(Cl)cc3)nn(C)c2CN1C[C@H]1CCC(=O)N1 [Compound 125]	8.04 µM	2980 nM	–	1370 nM	4.98 µM	–	–	–
CN1CC(n2nc(C(=O)NCc3ccc(Cl)cc3)c3c2CC(C[C@@H]2CCC(=O)N2)C3)C1 (stereo partly shown) [Compound 138]	5.9 µM	1870 nM	–	170 nM	4.31 µM	–	–	–
Cn1nc(C(=O)NCc2ccc(Cl)cc2)c2c1CC(O)(C[C@H]1CCC(=O)N1)C2 (stereo partly shown) [Compound 139]	33 µM	99000 nM	–	50500 nM	99 µM	–	–	–
